“Also recorded” adds a separate entry of the source.
How the values were obtained:
[1] = Tolerability in patients with chronic heart failure; type: in vivo, human
Procedure: The dose at which the frequency of significant adverse events increased was 160 mg.

[2] = tested on: spontaneous hypertensive rats; experiment: SCH-23390 pretreatment study in restrained SHRs; type: in vivo; settings: nepicastat 10 mg/kg po
Text: Male, spontaneous hypertensive rats (280-345 g; Charles River Labs, Kingston, N.Y.) were fasted overnight then anesthetized with ether. A femoral artery and femoral vein were cannulated with PE50 tubing for recording of blood pressure and administration of compounds, respectively. Animals were then placed in MAYO restrainers and their feet loosely taped to the restrainer. Heparinized saline (50 units sodium heparin/ml) was used to maintain patency of each cannula throughout the experiment. The following parameters were continuously recorded using Modular Instruments MI^2 BioReport™ software installed on an IBM personal computer: mean arterial pressure (MAP), heart rate (HR), and the change from baseline for each parameter at specified time points in the experiment.
All compounds were dissolved on the day of use. Nepicastat was dissolved in deionized water (vehicle) to a free base concentration of 1 mg/ml. Oral dosing volume for nepicastat or vehicle was 10 ml/kg. SCH-23390 was dissolved in saline (vehicle) to a free base concentration of 0.2 mg/ml. […] or saline were administered intravenously as a bolus in a volume of 1.0 ml/kg followed by 0.2 ml flush of isotonic saline.
Following surgical preparation, each animal was allowed a minimum one hour recovery period. Animals were randomly assigned to four treatment groups: vehicle (iv)/vehicle (po); vehicle (iv)/nepicastat (po); SCH-23390 (iv)/vehicle (po); or SCH-23390 (iv)/nepicastat (po). Once animals were stabilized (minimum one hour), baseline blood pressure and heart rate was determined by taking an average of each parameter over a 15 min period of time. Once baseline blood pressure and heart rate were established, animals were dosed intravenously with either SCH-23390 (200 μg/kg) or vehicle (saline, 1 ml/kg). Fifteen minutes later, animals were orally dosed with either nepicastat (10 mg/kg) or vehicle (deionized water, 10 ml/kg).
Recorded parameters were measured 15 min prior to intravenous dosing to establish baseline blood pressure and heart rate. Recorded parameters were then measured at 5, 10, and 15 min following intravenous administration of SCH-23390 or vehicle. Following oral administration of nepicastat or vehicle, recorded parameters were measured at 15, 30, 60, 90, 120, 150, 180, 210, and 240 min.
At the end of the experiment, each animal was anesthetized with halothane and euthanized via decapitation. The cortex, left ventricle (apex), and mesenteric artery were dissected out, weighed, and fixed in 0.4 M perchloric acid. Tissues were then frozen in liquid nitrogen and stored at −70° C. Biochemical analysis are performed on these tissues at a later date to determine catecholamine levels including dopamine and norepinephrine levels. Blood pressure and heart rate were analyzed separately. The change from baseline for blood pressure and heart rate were analyzed by an analysis of variance (ANOVA) with effects for treatment, time, and their interaction. This analysis was performed both for the post-iv time period and for the post-oral time period. Further analyses were performed at each time by an ANOVA with a main effect for […]. Pairwise comparisons were performed following each ANOVA by Fisher's LSD strategy with a Bonferroni correction when the overall treatment effect was not significant.
An additional analysis was performed to compare the baseline means of each treatment group by an ANOVA with a main effect for treatment and subsequent pairwise comparisons. […]

For Cl.NCc1c[nH]c(=S)n1[C@H]1CCc2c(F)cc(F)cc2C1 [nepicastat, (S)-5-Aminomethyl-1-(5,7-difluoro-1,2,3,4-tetrahydronaphth-2-yl)-2,3-dihydro-2-thioxo-1H-imidazole hydrochloride], the “patients with symptomatic orthostatic hypotension” value ([1]; 160 mg) was 6 of the 8 patients, the “patients who developed a rash” value ([1]; 160 mg for 8 days or longer) was “Four of 8 patients” and the tolerability ([1]; daily doses of 40, 80, 120 mg for 10 days) was “generally well tolerated”. The “dose at which the frequency of significant adverse events increased” value ([1]; human, in vivo) was 160 mg, the “heart rate vs vehicle” value ([2]; SCH-23390 200 μg/kg iv) was “did not decrease the heart rate as much as observed in vehicle treated animals” and the mean arterial pressure [2] was “significant decrease (p<0.05) in mean arterial pressure”. For the same molecule, the “time post dose by which MAP decrease was significant” value [2] was no more than 30 min and the “antihypertensive effect of nepicastat after pretreatment with SCH-23390” value ([2]; SCH-23390 iv, hydrochloride) was “not attenuated; also recorded: did not significantly attenuate”.
